Assay results reported in PubChem BioAssay AID1918998 (Molecular Pharmacology Branch, DTP, NCI, 2023).

Tested on: 521955-158-R2-J5-PDC complex spheroid growth
Assay: Anticancer human tumor 521955-158-R2-J5-PDC patient-derived pancreatic carcinoma cell line growth inhibition [AhR]
Settings: for IC50: curve of first compound; for viability, T/C: stronger effect = lower value
Text: Multicellular complex tumor spheroid response to aryl hydrocarbon receptor antagonists in combination with a variety of drugs and investigational agents in selected tumor cell lines
The current study was undertaken to assess response to aryl hydrocarbon receptor antagonists in combination with standard-of-care drugs and investigational agents in solid tumor complex spheroid models. Complex spheroids include a stromal component modeled by human endothelial cells (HUVEC) and fibroblasts modeled by human mesenchymal stem cells (MSCs). The concentration ranges selected for each drug and investigational agent were based upon clinically achievable concentrations if the clinical Cmax of the agent was known.
Compounds. The drugs and investigational agents: BAY 2416964 (NSC825713), GNF351 (NSC835774), CH-223191 (NSC835775), CPI-455 (NSC825282), aza-TdCyd (NSC777586), decitabine (NSC127716), belinostat (NSC758774), entinostat (NSC756642), pevonedistat (NSC761192), tazemetostat (NSC777109), talazoparib (NSC765396), olaparib (NSC753686), selinexor (NSC780203), nedisertib (M3814, NSC802822), bortezomib (NSC756655), venetoclax (NSC766270), doxorubicin (NSC123127), elimusertib (BAY189344, NSC800525), ceralasertib (AZD6738, NSC777638), TAK-243 (NSC785004), alisertib (NSC759677), etoposide (NSC141540), topotecan (NSC609699), eribulin (NSC707389), gemcitabine (NSC613327), carboplatin (NSC241240), cisplatin (NSC119875), and SN-38 (NSC673596) were obtained from the National Cancer Institute (NCI) Developmental Therapeutics Program Chemical Repository (32). The FDA-approved anticancer drug set is available from the Developmental Therapeutics Program at https://dtp.cancer.gov/organization/dscb/obtaining/available plates.htm. […] The stock solutions were prepared in dimethyl sulfoxide (DMSO, Sigma-Aldrich, St. Louis, MO, cat. D2650), except for the platinum compounds which were prepared in saline (Quality Biological, Gaithersburg, MD, cat. 114-055-101), at 800-fold the tested concentration and stored at -70 degrees C prior to their use. All drugs and investigational agents were tested over a range starting from a high concentration at or near the clinical Cmax and decreasing in half-log increments. If the clinical Cmax for an agent had not been determined, the highest concentration tested was 10 microM (Table 1).
Cell Culture. All cells were maintained in an incubator at 37 degrees C and 5% CO2 with 95% humidity. The PDC lines were cultured according to standard operating procedures established by the NCI PDMR (https://pdmr.cancer.gov). Briefly, all PDCs were thawed and cultured in Matrigel-coated flasks prepared with a working solution of 1X Ham's F-12 nutrient mix, without supplementation (Invitrogen, Waltham, MA, cat. 11765054), 100 U/mL penicillin-streptomycin (Invitrogen, cat. 15140122), and 2.5% Matrigel (Corning Inc., Corning, NY, cat. 354248) for the first three passages. All PDCs were cultured in complete DMEM/F-12 media containing advanced DMEM/F-12 (Invitrogen, cat. 12634028), 4.9% defined fetal bovine serum, heat inactivated (HyClone Laboratories Inc., Logan, UT, cat. SH30070.03HI), 389 ng/mL hydrocortisone (Sigma-Aldrich, cat. H4001), 9.7 ng/mL human EGF recombinant protein (Invitrogen, cat. PHG0313), 23.4 microg/mL adenine (Sigma-Aldrich, cat. A2786), 97.3 U/mL penicillin-streptomycin (Invitrogen, cat. 15140122), 1.9 mM L-glutamine (Invitrogen, cat. 25030081), and 9.7 microM Y-27632 dihydrochloride (Tocris Bioscience, Bristol, United Kingdom, cat. 1254). The PDCs were cultured in complete DMEM/F12 media without 10 microM Y-27632 dihydrochloride for at least two passages prior to the screen. The established cell lines NCI-H1341 and […] were cultured in DMEM/F-12, HEPES (Invitrogen, cat. 11330032), 5% defined fetal bovine serum (HyClone Laboratories Inc., cat. SH30070.03), ITS premix universal culture supplement [insulin (5 microg/mL), transferrin (5 microg/mL), and selenious acid (5 ng/mL)] […]

[1] = second compound 0.1 µM, first compound 0.0316 µM
[2] = second compound 0.1 µM, first compound 0.1 µM
[3] = second compound 0.1 µM, first compound 0.316 µM
[4] = second compound 0.1 µM, first compound 1 µM
[5] = second compound 0.1 µM, first compound 3.16 µM
[6] = second compound 0.1 µM, first compound 10 µM
[7] = second compound 0.316 µM, first compound 0.0316 µM
[8] = second compound 0.316 µM, first compound 0.1 µM
[9] = second compound 0.316 µM, first compound 0.316 µM
[10] = second compound 0.316 µM, first compound 1 µM
[11] = second compound 0.316 µM, first compound 3.16 µM
[12] = second compound 0.316 µM, first compound 10 µM
[13] = second compound 1 µM, first compound 0.0316 µM
[14] = second compound 1 µM, first compound 0.1 µM
[15] = second compound 1 µM, first compound 0.316 µM
[16] = second compound 1 µM, first compound 1 µM
[17] = second compound 1 µM, first compound 3.16 µM
[18] = second compound 1 µM, first compound 10 µM
[19] = second compound 3.16 µM, first compound 0.0316 µM
[20] = second compound 3.16 µM, first compound 0.1 µM
[21] = second compound 3.16 µM, first compound 0.316 µM
[22] = second compound 3.16 µM, first compound 1 µM
[23] = second compound 3.16 µM, first compound 3.16 µM
[24] = second compound 3.16 µM, first compound 10 µM
[25] = second compound 10 µM, first compound 0.0316 µM
[26] = second compound 10 µM, first compound 0.1 µM
[27] = second compound 10 µM, first compound 0.316 µM
[28] = second compound 10 µM, first compound 1 µM
[29] = second compound 10 µM, first compound 3.16 µM
[30] = second compound 10 µM, first compound 10 µM
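For viability, T/C in this document: spheroids mix tumor cells with HUVEC endothelium and human MSC stroma; luminescence taken as viability surrogate after a week of drug exposure.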

SMILES: NS(=O)(=O)OCC1CC(n2ccc3c(NC4CCc5ccccc54)ncnc32)CC1O (stereo not given) + Cc1cncc(-c2nc(NCCc3c[nH]c4ccccc34)c3ncn(C(C)C)c3n2)c1
- IC50 (second compound 0.1 µM): 968 nM
- IC50 (second compound 0.316 µM): 1170 nM
- IC50 (second compound 1 µM): 1250 nM
- IC50 (second compound 3.16 µM): 1240 nM
- IC50 (second compound 10 µM): 68.3 nM
- viability, T/C [1]: 106%
- viability, T/C [2]: 103%
- viability, T/C [3]: 80.1%
- viability, T/C [4]: 47.9%
- viability, T/C [5]: 40.1%
- viability, T/C [6]: 30.1%
- viability, T/C [7]: 105%
- viability, T/C [8]: 102%
- viability, T/C [9]: 78.5%
- viability, T/C [10]: 53.4%
- viability, T/C [11]: 35.6%
- viability, T/C [12]: 30.4%
- viability, T/C [13]: 115%
- viability, T/C [14]: 105%
- viability, T/C [15]: 83.7%
- viability, T/C [16]: 52.1%
- viability, T/C [17]: 38%
- viability, T/C [18]: 32.1%
- viability, T/C [19]: 99.4%
- viability, T/C [20]: 102%
- viability, T/C [21]: 75.2%
- viability, T/C [22]: 52.6%
- viability, T/C [23]: 45%
- viability, T/C [24]: 35.2%
- viability, T/C [25]: 65.5%
- viability, T/C [26]: 40.6%
- viability, T/C [27]: 34.4%
- viability, T/C [28]: 32.7%
- viability, T/C [29]: 28.7%
- viability, T/C [30]: 23.9%

SMILES: NS(=O)(=O)OCC1CC(n2ccc3c(NC4CCc5ccccc54)ncnc32)CC1O (stereo not given) + Cc1ccccc1N=Nc1ccc(NC(=O)c2ccnn2C)c(C)c1
- IC50 (second compound 0.1 µM): 1360 nM
- IC50 (second compound 0.316 µM): 1220 nM
- IC50 (second compound 1 µM): 941 nM
- IC50 (second compound 3.16 µM): 821 nM
- IC50 (second compound 10 µM): 343 nM
- viability, T/C [1]: 118%
- viability, T/C [2]: 115%
- viability, T/C [3]: 102%
- viability, T/C [4]: 56.7%
- viability, T/C [5]: 30.4%
- viability, T/C [6]: 20.8%
- viability, T/C [7]: 111%
- viability, T/C [8]: 105%
- viability, T/C [9]: 87.5%
- viability, T/C [10]: 53.5%
- viability, T/C [11]: 30.9%
- viability, T/C [12]: 21.9%
- viability, T/C [13]: 114%
- viability, T/C [14]: 111%
- viability, T/C [15]: 88.3%
- viability, T/C [16]: 47.6%
- viability, T/C [17]: 29.6%
- viability, T/C [18]: 23.7%
- viability, T/C [19]: 137%
- viability, T/C [20]: 110%
- viability, T/C [21]: 77.6%
- viability, T/C [22]: 45.2%
- viability, T/C [23]: 23.7%
- viability, T/C [24]: 21.8%
- viability, T/C [25]: 108%
- viability, T/C [26]: 91.2%
- viability, T/C [27]: 50.8%
- viability, T/C [28]: 32.1%
- viability, T/C [29]: 25.2%
- viability, T/C [30]: 25.6%
